Results reported in ChEMBL document CHEMBL1201862, “PubChem BioAssay data set” (2004).
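Where inhibition never reached the appropriate level, the endpoint shown equals the highest concentration tested. Otherwise, values were interpolated linearly from a five-concentration, 48-hour dose response in 96-well plates. GI50 marks 50% less growth.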 Activity calls are given as the source filed them. No stated cut-off is given here; in the data, active = GI50 up to about 1.1 µM and inactive = higher.

Key:
Assay in all cases: NCI tumour cell line growth inhibition, 48 h
A549 = tested on: A549
EKVX = tested on: EKVX
HCT-116 = tested on: HCT-116
HOP-62 = tested on: HOP-62
IGROV-1 = tested on: IGROV-1
MCF7 = tested on: MCF7
MOLT-4 = tested on: MOLT-4
NCI-H226 = tested on: NCI-H226
NCI-H460 = tested on: NCI-H460
NCI/ADR-RES = tested on: NCI/ADR-RES
OVCAR-4 = tested on: OVCAR-4
OVCAR-5 = tested on: OVCAR-5
OVCAR-8 = tested on: OVCAR-8
RPMI-8226 = tested on: RPMI-8226
SF-268 = tested on: SF-268
SN12C = tested on: SN12C
SNB-75 = tested on: SNB-75
UACC-257 = tested on: UACC-257
UACC-62 = tested on: UACC-62
ACHN = tested on: ACHN

For `CC(C)=CCC/C(C)=C/CCC1(C)C=Cc2c(c3ccccc3oc2=O)O1` (stereo not given), the GI50 (A549) was 17.5 µM (inactive), the GI50 (EKVX) was 18.5 µM (inactive) and the GI50 (HCT-116) was 14.8 µM (inactive). The GI50 (HOP-62) was 13.2 µM (inactive), the GI50 (IGROV-1) was 16.4 µM (inactive) and the GI50 (MCF7) was 16.5 µM (inactive). For the same compound, the GI50 (MOLT-4) was 20.6 µM (inactive), the GI50 (NCI-H226) was 16.1 µM (inactive) and the GI50 (NCI-H460) was 15.8 µM (inactive). For the same compound, the GI50 (NCI/ADR-RES) was 16.7 µM (inactive), the GI50 (OVCAR-4) was 14.5 µM (inactive) and the GI50 (OVCAR-5) was 18.6 µM (inactive). For the same compound, the GI50 (OVCAR-8) was 16.7 µM (inactive), the GI50 (RPMI-8226) was 18.2 µM (inactive) and the GI50 (SF-268) was 20.6 µM (inactive). For the same compound, the GI50 (SN12C) was 16.8 µM (inactive), the GI50 (SNB-75) was 13.4 µM (inactive) and the GI50 (UACC-257) was 17.1 µM (inactive). The GI50 (UACC-62) was 10.2 µM (inactive).

For `COc1cc2c(cc1OC)-c1cc3ccccc3c[n+]1CC2`, the GI50 (A549) was > 100 µM (inactive), the GI50 (ACHN) was > 100 µM (inactive) and the GI50 (EKVX) was > 100 µM (inactive). The GI50 (HCT-116) was > 100 µM (inactive), the GI50 (HOP-62) was > 100 µM (inactive) and the GI50 (IGROV-1) was > 100 µM (inactive). For the same compound, the GI50 (MCF7) was 70.3 µM (inactive), the GI50 (MOLT-4) was > 100 µM (inactive) and the GI50 (NCI-H226) was > 100 µM (inactive). The GI50 (NCI-H460) was > 100 µM (inactive), the GI50 (NCI/ADR-RES) was > 100 µM (inactive) and the GI50 (OVCAR-4) was > 100 µM (inactive). For the same compound, the GI50 (OVCAR-5) was > 100 µM (inactive), the GI50 (OVCAR-8) was > 100 µM (inactive) and the GI50 (RPMI-8226) was 36.6 µM (inactive). For the same compound, the GI50 (SF-268) was 27.5 µM (inactive), the GI50 (SN12C) was 39.6 µM (inactive) and the GI50 (SNB-75) was > 100 µM (inactive). For the same compound, the GI50 (UACC-257) was 89.5 µM (inactive) and the GI50 (UACC-62) was > 100 µM (inactive).

In the case of `COC1=C2CC(C)CC(OC)C(O)C(C)/C=C(\C)C(OC(N)=O)C(OC)/C=C\C=C(/C)C(=O)NC(=C(/C=N/C(C)(C)C)C1=O)C2=O` (stereo not given), the GI50 (A549) is reported as 2.47 µM (inactive), the GI50 (EKVX) is reported as 3.64 µM (inactive) and the GI50 (HCT-116) is reported as 3.69 µM (inactive). For the same compound, the GI50 (HOP-62) was 5.86 µM (inactive), the GI50 (IGROV-1) was 13.1 µM (inactive) and the GI50 (MCF7) was 2.89 µM (inactive). The GI50 (MOLT-4) was 3.44 µM (inactive), the GI50 (NCI-H226) was 1.75 µM (inactive) and the GI50 (NCI-H460) was 2.44 µM (inactive). The GI50 (NCI/ADR-RES) was 5.7 µM (inactive), the GI50 (OVCAR-4) was 1.71 µM (inactive) and the GI50 (OVCAR-5) was 37.3 µM (inactive). The GI50 (OVCAR-8) was 5 µM (inactive), the GI50 (RPMI-8226) was 0.946 µM (active) and the GI50 (SF-268) was 6.3 µM (inactive). For the same compound, the GI50 (SN12C) was 2.04 µM (inactive), the GI50 (SNB-75) was 0.767 µM (active) and the GI50 (UACC-257) was 2.55 µM (inactive). For the same compound, the GI50 (UACC-62) was 5.38 µM (inactive).

In the case of `CCOC(=O)/C=C/c1c(C)[nH]c(=O)[nH]c1=O`, the GI50 (A549) is reported as > 250 µM (inactive), the GI50 (EKVX) is reported as > 250 µM (inactive) and the GI50 (HCT-116) is reported as > 250 µM (inactive). The GI50 (HOP-62) was > 250 µM (inactive), the GI50 (IGROV-1) was > 250 µM (inactive) and the GI50 (MCF7) was 244 µM (inactive). For the same compound, the GI50 (MOLT-4) was > 250 µM (inactive), the GI50 (NCI-H226) was > 250 µM (inactive) and the GI50 (NCI-H460) was > 250 µM (inactive). For the same compound, the GI50 (NCI/ADR-RES) was > 250 µM (inactive), the GI50 (OVCAR-4) was > 158 µM (inactive) and the GI50 (OVCAR-5) was > 94.4 µM (inactive). The GI50 (OVCAR-8) was 212 µM (inactive), the GI50 (RPMI-8226) was > 250 µM (inactive) and the GI50 (SF-268) was > 250 µM (inactive). The GI50 (SN12C) was > 250 µM (inactive), the GI50 (SNB-75) was > 250 µM (inactive) and the GI50 (UACC-257) was > 250 µM (inactive). The GI50 (UACC-62) was > 250 µM (inactive).

For `CN(CCCNc1ccc2ncn3c4ccccc4c(=O)c1c23)CCCN1C(=O)c2cccc3cc([N+](=O)[O-])cc(c23)C1=O`, the GI50 (A549) was 0.00628 µM (active), the GI50 (ACHN) was 0.0012 µM (active) and the GI50 (EKVX) was 0.0561 µM (active). The GI50 (HCT-116) was 0.00174 µM (active), the GI50 (HOP-62) was 0.0472 µM (active) and the GI50 (IGROV-1) was 0.00948 µM (active). For the same compound, the GI50 (MCF7) was 0.00541 µM (active), the GI50 (MOLT-4) was 0.00565 µM (active) and the GI50 (NCI-H226) was 0.00603 µM (active). The GI50 (NCI-H460) was 0.00295 µM (active), the GI50 (NCI/ADR-RES) was 0.0376 µM (active) and the GI50 (OVCAR-4) was 0.131 µM (active). For the same compound, the GI50 (OVCAR-5) was 1.14 µM (inactive), the GI50 (OVCAR-8) was 0.0205 µM (active) and the GI50 (RPMI-8226) was 0.0132 µM (active). The GI50 (SF-268) was 0.0247 µM (active), the GI50 (SN12C) was 0.0125 µM (active) and the GI50 (SNB-75) was 0.018 µM (active). For the same compound, the GI50 (UACC-257) was 0.0867 µM (active).

`C/C(=N\NS(=O)(=O)c1ccccc1)c1ccccc1` was tested, and the GI50 (A549) was > 100 µM (inactive), the GI50 (EKVX) was > 100 µM (inactive) and the GI50 (HCT-116) was > 100 µM (inactive). For the same compound, the GI50 (HOP-62) was > 100 µM (inactive), the GI50 (IGROV-1) was > 100 µM (inactive) and the GI50 (MCF7) was > 94 µM (inactive). The GI50 (MOLT-4) was > 100 µM (inactive), the GI50 (NCI-H226) was > 80.4 µM (inactive) and the GI50 (NCI-H460) was > 100 µM (inactive). The GI50 (NCI/ADR-RES) was > 100 µM (inactive), the GI50 (OVCAR-4) was > 100 µM (inactive) and the GI50 (OVCAR-5) was > 100 µM (inactive). The GI50 (OVCAR-8) was > 100 µM (inactive), the GI50 (RPMI-8226) was > 100 µM (inactive) and the GI50 (SF-268) was > 100 µM (inactive). The GI50 (SN12C) was > 100 µM (inactive), the GI50 (SNB-75) was > 100 µM (inactive) and the GI50 (UACC-257) was > 100 µM (inactive). The GI50 (UACC-62) was > 100 µM (inactive).

`O=C1C(=O)c2ccccc2C=C1[N+](=O)[O-]` was tested, and the GI50 (A549) was > 100 µM (inactive), the GI50 (ACHN) was > 100 µM (inactive) and the GI50 (EKVX) was 19.3 µM (inactive). For the same compound, the GI50 (HCT-116) was 26.2 µM (inactive), the GI50 (HOP-62) was > 100 µM (inactive) and the GI50 (IGROV-1) was 13.8 µM (inactive). For the same compound, the GI50 (MCF7) was 22.9 µM (inactive), the GI50 (MOLT-4) was 29.3 µM (inactive) and the GI50 (NCI-H226) was > 100 µM (inactive). The GI50 (NCI-H460) was 30.2 µM (inactive), the GI50 (NCI/ADR-RES) was 23 µM (inactive) and the GI50 (OVCAR-4) was 31.3 µM (inactive). For the same compound, the GI50 (OVCAR-5) was > 100 µM (inactive), the GI50 (OVCAR-8) was 33.7 µM (inactive) and the GI50 (RPMI-8226) was 31 µM (inactive). The GI50 (SF-268) was 38.3 µM (inactive), the GI50 (SN12C) was 29.4 µM (inactive) and the GI50 (SNB-75) was > 100 µM (inactive). The GI50 (UACC-257) was 25.2 µM (inactive) and the GI50 (UACC-62) was 27.7 µM (inactive).
